In patent US12497403B2, “Factor XIa inhibitors” (Merck Sharp & Dohme LLC, priority 2021, dated 2025) one finds IC50 and MRT data, which are given here for six compounds.

pIC50: −log10 of the molar value.

One series has as its target T1, human tissue kallikrein (Homo sapiens, UniProt P06870).
T1 construct: purchased Ray Biotech or Evotec 228-10996
Nature of the series: Inhibition of tissue kallikrein enzymatic activity. It is filed as biochemical. The settings on record: human tissue kallikrein 5 nM, N-acetyl-KPR-AFC substrate, 25° C., pH 7.4; read-out: tKal IC50. As for the experimental part: Compounds were assayed with human tissue kallikrein (Ray Biotech, Cat # 228-10996 or Evotec, final concentration 5 nM) in 50 mM HEPES, 150 mM NaCl, 5 mM CaCl2, 0.1% PEG-8000, pH 7.4 at 25° C. in a Corning 3575 non-binding surface microplate. Compounds were tested in 10-point dose titrations starting at 166.67 uM with a 3-fold dilution series. Tissue kallikrein enzymatic activity was determined by measuring the rate of cleavage of N-acetyl-KPR-AFC substrate (Sigma, Cat # C6608, final concentration 100 uM) by continuously monitoring the fluorescence at 400/505 nm using a Tecan Safire plate-reader. The initial reaction rates (0) to 20 minutes) were used to determine percent inhibition. The % Inhibition for each data point was recalculated from the RFU/min data and analyzed using the log(inhibitor) vs. response four parameters equation with the GraphPad Prism software.

Series [1] in a line: Rat pharmacokinetics (cassette IV or screening IV/PO). The settings on record: male; rat plasma, mean residence time. It is filed as in vivo. How it is done: Plasma pharmacokinetic parameters for clearance, volume of distribution, half-life and mean residence time (MRT) were determined in rats from IV cassette administration studies. 2 male rats typically weighing 225-260 gram, were fasted overnight prior to dosing. Compounds were prepared for IV dosing by addition to a vehicle, depending on the dose used. For a typical preparation, 1 mg per mL (IV) of up to 5 test compounds were added to vehicle comprised of 20% dimethyl sulfoxide (DMSO), 60% polyethylene glycol 400 (PEG400) and 20% water. IV formulation was administered to 2 rats via pre-cannulated jugular vein. Blood was collected by pre-cannulated artery, typically at predose, 2, 8, 15, 30 min. 1, 2, 4, 6, and 8 hr postdose. Samples were collected in K2EDTA tubes, stored on ice, and centrifuged. Plasma was transferred to a micro titer plate and stored at −70° C.until analysis. Plasma samples were extracted using protein precipitation and analyzed by liquid chromatography separation followed by mass spec detection (LCMS/MS), using a standard curve for each compound. Plasma pharmacokinetic parameters were calculated by non-compartmental methods.
Plasma pharmacokinetic parameters for clearance, volume of distribution, half-life, mean residence time (MRT) and oral bioavailability (%F)-were determined in rats from oral administration and IV administration studies. 4 male rats, typically weighing 225-260 gram, were fasted overnight prior to dosing. Compounds were prepared for oral and IV dosing by addition to a vehicle, depending on the dose used. For a typical preparation, 1 mg per mL (IV) or 1.5 mg per mL (oral) of test compound was added to vehicle comprised of 20% dimethyl sulfoxide (DMSO), 60% polyethylene glycol 400 (PEG400) and 20% water. IV formulation was administered to 2 rats via pre-cannulated jugular vein, and oral dosing was administered to 2 rats via oral gavage. Blood was collected by pre-cannulated artery, typically at predose, 2 min, 8 min, 15 min. 30 min, and 1, 2, 4, 6, and 8 hr postdose for IV, and at predose, 15 min, 30 min, and 1, 2, 4, 6, 8 hr for oral dosing. Samples were collected in K2EDTA tubes, stored on ice, and centrifuged. Plasma was transferred to a micro titer plate and stored at −70° C. until analysis. Plasma samples were extracted using protein precipitation and analyzed by liquid chromatography separation followed by mass spec detection (LCMS/MS), using a standard curve for each compound. Plasma pharmacokinetic parameters were calculated for IV and oral dosing data by non-compartmental methods. Oral bioavailability was determined as the ratio of the dose-normalized plasma area under the curve (AUC) following oral dosing vs. IV dosing.

A short description of series [2]: Dog pharmacokinetics (screening IV/PO or cassette IV). It is filed as in vivo. The settings on record: male; dog plasma, mean residence time. How it is done:
Plasma pharmacokinetic parameters for clearance, volume of distribution, half-life, mean residence time (MRT) and oral bioavailability were determined in dogs from oral administration and IV administration studies. 4 male dogs, typically weighing 8-12 kilograms, were fasted overnight prior to dosing. Compounds were prepared for oral and IV dosing by addition to a vehicle, depending on the dose used. For a typical preparation, 1 mg per mL (IV) or 1.5 mg per mL (oral) of test compound was added to vehicle comprised of 20% dimethyl sulfoxide (DMSO), 60% polyethylene glycol 400 (PEG400) and 20% water. IV formulation was administered to 2 dogs via the saphenous or cephalic vein, and oral dosing was administered to 2 dogs via oral gavage. Blood was collected by the cephalic or jugular vein, typically at predose, 2 min, 8 min, 15 min, 30 min, and 1, 2, 4, 6, 8 and 24 hr postdose for IV, and at predose, 15 min, 30 min, and 1, 2, 4, 6, 8, and 24 hr for oral dosing. Samples were collected in K2EDTA tubes, stored on ice. and centrifuged. Plasma was transferred to a micro titer plate and stored at −70° C.until analysis. Plasma samples were extracted using protein precipitation and analyzed by liquid chromatography separation followed by mass spec detection (LCMS/MS), using a standard curve for each compound. Plasma pharmacokinetic parameters were calculated for IV and oral dosing data by non-compartmental methods. Oral bioavailability was determined as the ratio of the dose-normalized plasma area under the curve (AUC) following oral dosing vs. IV dosing.
Plasma pharmacokinetic parameters for clearance, volume of distribution, half-life, and mean residence time (MRT) were determined in dogs from IV cassette administration studies. 2 male dogs, typically weighing 8-12 kilograms, were fasted overnight prior to dosing. Compounds were prepared for IV dosing by addition to a vehicle, depending on the dose used. For a typical preparation, 1 mg per mL (IV) of up to 5 test compounds were added to vehicle comprised of 20% dimethyl sulfoxide (DMSO), 60% polyethylene glycol 400 (PEG400) and 20% water. IV formulation was administered to 2 dogs via the saphenous or cephalic vein. Blood was collected by the cephalic or jugular vein, typically at predose. 2, 8, 15, 30 min, 1, 2, 4, 6, 8 and 24 hr postdose. Samples were collected in K2EDTA tubes, stored on ice, and centrifuged. Plasma was transferred to a micro titer plate and stored at −70° C. until analysis. Plasma samples were extracted using protein precipitation and analyzed by liquid chromatography separation followed by mass spec detection (LCMS/MS), using a standard curve for each compound. Plasma pharmacokinetic parameters were calculated by non-compartmental methods.

T1 sequence (P06870 25-262): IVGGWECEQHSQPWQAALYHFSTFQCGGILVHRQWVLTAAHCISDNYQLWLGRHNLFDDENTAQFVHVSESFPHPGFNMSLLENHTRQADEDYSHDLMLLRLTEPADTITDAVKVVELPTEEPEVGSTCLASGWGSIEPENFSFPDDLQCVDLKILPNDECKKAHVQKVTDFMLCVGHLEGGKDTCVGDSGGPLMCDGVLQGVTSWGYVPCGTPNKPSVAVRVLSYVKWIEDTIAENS

As to `CCOC(=O)c1[nH]c2nc1-c1ccc(NC(=O)OC)cc1NC(=O)C(C)(C)CCC[C@@H]2c1ccc(-c2cc(F)ccc2-n2cc(C(F)(F)F)cn2)c[n+]1[O-]` [Example 1, (R,Z)-2-(1^5-(ethoxycarbonyl)-2^4-((methoxycarbonyl)amino)-5,5-dimethyl-4-oxo-1^1H-3-aza-1(4,2)-imidazola-2(1,2)-benzenacyclononaphane-9-yl)-5-(5-fluoro-2-(4-(trifluoromethyl)-1H-pyrazol-1-yl)phenyl)pyridine 1-oxide], the negative-log IC50 (pIC50) on human tissue kallikrein was under 3.78. Also, the values for the mean residence time (MRT) in series [1] and in series [2] were 4 h and 12 h, respectively.
For `CCOC(=O)c1[nH]c2nc1-c1ccc(NC(=O)OC)cc1NC(=O)C(C)(C)CCC[C@@H]2c1ccc(-c2cccc(Cl)c2F)c[n+]1[O-]` [Example 5, (R,Z)-5-(3-chloro-2-fluorophenyl)-2-(1^5-(ethoxycarbonyl)-2^4-((methoxycarbonyl)amino)-5,5-dimethyl-4-oxo-1^1H-3-aza-1(4,2)-imidazola-2(1,2)-benzenacyclononaphane-9-yl)pyridine 1-oxide], the pIC50 at human tissue kallikrein was 4.82. For the same compound, the MRT stood at 3.7 h in series [1] and 7.2 h in series [2].
Taken in the same sequence, the figures for `CCOC(=O)c1[nH]c2nc1-c1ccc(NC(=O)OC)cc1NC(=O)C(C)(C)CCC[C@@H]2c1ccc(-c2cc(F)ccc2OC(F)F)c[n+]1[O-]` [Example 3, (R,Z)-5-(2-(difluoromethoxy)-5-fluorophenyl)-2-(1^5-(ethoxycarbonyl)-2^4-((methoxycarbonyl)amino)-5,5-dimethyl-4-oxo-1^1H-3-aza-1(4,2)-imidazola-2(1,2)-benzenacyclononaphane-9-yl)pyridine 1-oxide] were 6.05, 3.2 h and 6.1 h.
For `CCOC(=O)c1[nH]c2nc1-c1ccc(NC(=O)OC)cc1NC(=O)C(C)(C)CCC[C@@H]2c1ccc(-c2cc(Cl)cnc2OC(F)F)c[n+]1[O-]` [Example 4, (R,Z)-5′-chloro-2′-(difluoromethoxy)-6-(1^5-(ethoxycarbonyl)-2^4-((methoxycarbonyl)amino)-5,5-dimethyl-4-oxo-1^1H-3-aza-1(4,2)-imidazola-2(1,2)-benzenacyclononaphane-9-yl)-[3,3′-bipyridine] 1-oxide], at human tissue kallikrein, the pIC50 is under 3.78. The MRT in series [1] stood at 3.8 h; in series [2] it was 9.9 h.
In the same order, the values of `COC(=O)Nc1ccc2c(c1)NC(=O)C(C)(C)CCC[C@H](c1ccc(-c3cc(F)ccc3-n3cc(C(F)(F)F)cn3)c[n+]1[O-])c1nc-2c(C(=O)OC)[nH]1` [Example 6, (R,Z)-5-(5-fluoro-2-(4-(trifluoromethyl)-1H-pyrazol-1-yl)phenyl)-2-(1^5-(methoxycarbonyl)-2^4-((methoxycarbonyl)amino)-5,5-dimethyl-4-oxo-1^1H-3-aza-1(4,2)-imidazola-2(1,2)-benzenacyclononaphane-9-yl)pyridine 1-oxide] are under 3.78, 3.1 h and 8.9 h.
Taken in the same sequence, the figures for `CCOC(=O)c1[nH]c2nc1-c1ccc(NC(=O)OC)cc1NC(=O)C(C)(C)CCC[C@@H]2c1ccc(-c2cc(Cl)ccc2-n2cc(C(F)(F)F)cn2)c[n+]1[O-]` [Example 2, (R,Z)-5-(5-chloro-2-(4-(trifluoromethyl)-1H-pyrazol-1-yl)phenyl)-2-(1^5-(ethoxycarbonyl)-2^4-((methoxycarbonyl)amino)-5,5-dimethyl-4-oxo-1^1H-3-aza-1(4,2)-imidazola-2(1,2)-benzenacyclononaphane-9-yl)pyridine 1-oxide] were under 3.78, 3.7 h and 15 h.
